Laboratory results reported in patent US8802597B2, “Herbicidal pyrimidines” (E I du Pont de Nemours and Company, priority 2003, dated 2014).
Like-named read-outs stand apart in the source and are kept apart here.

What was measured:
Type in all cases: in vivo
[1] = test system: blackgrass (Alopecurus myosuroides); assay: Test B postemergence; details: Alopecurus myosuroides, post-emergence
Method in brief: (§1)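 Plants treated pre- or postemergence were compared visually with controls after 13 to 15 days. Ratings ran from 0, no effect, to 100, complete control.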

wild oat (Avena fatua) = assay: Test B postemergence; details: Avena fatua, post-emergence
Method in brief: as §1

rice (Oryza sativa) = assay: Test B flooded paddy test; details: Oryza sativa, Flood, 1000 g ai/ha; scale 0 to 100; read-out: Plant response rating, Rice
Method in brief: (§2)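 Plants were grown to the 2-leaf stage before treatment, then kept in a greenhouse for 13 to 15 days. Injury was rated visually against untreated controls on a 0 to 100 scale, where 0 is no effect and 100 is complete control.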

[2] = test system: duck salad (Heteranthera limosa); assay: Test B flooded paddy test; details: Heteranthera limosa, Flood, 1000 g ai/ha; scale 0 to 100; read-out: Plant response rating, Ducksalad
Method in brief: as §2

[3] = test system: barnyardgrass (Echinochloa crus-galli); assay: Test B flooded paddy test; details: Echinochloa crus-galli, Flood, 1000 g ai/ha; scale 0 (no effect) to 100 (complete control); read-out: Plant response rating, Barnyardgrass
Method in brief: as §2

[4] = test system: umbrella sedge (Cyperus difformis); assay: Test B flooded paddy test; details: Cyperus difformis, Flood, 1000 g ai/ha; scale 0 to 100; read-out: Plant response rating, Sedge, Umbrella
Method in brief: as §2

[5] = test system: Surinam grass (Brachiaria decumbens); assay: Test B pre/postemergence; details: Urochloa decumbens; for pest or weed control at 125 g/ha: 125 g ai/ha; for pest or weed control at 500 g/ha: 500 g ai/ha
Method in brief: as §1

[6] = test system: velvetleaf (Abutilon theophrasti); assay: Test B pre/postemergence; details: Abutilon theophrasti; for pest or weed control at 125 g/ha: 125 g ai/ha; for pest or weed control at 500 g/ha: 500 g ai/ha
Method in brief: as §1

[7] = test system: cocklebur (Xanthium strumarium); assay: Test B pre/postemergence; details: Xanthium strumarium; for pest or weed control at 125 g/ha: 125 g ai/ha; for pest or weed control at 500 g/ha: 500 g ai/ha
Method in brief: as §1

[8] = test system: pigweed (Amaranthus retroflexus); assay: Test B pre/postemergence; details: Amaranthus retroflexus; for pest or weed control at 125 g/ha: 125 g ai/ha; for pest or weed control at 500 g/ha: 500 g ai/ha
Method in brief: as §1

corn (Zea mays) = assay: Test B pre/postemergence; details: Zea mays
Method in brief: as §1

[9] = test system: wheat (Triticum aestivum); assay: Test B pre/postemergence; details: Triticum aestivum; for plant injury at 125 g/ha: 125 g ai/ha; for plant injury at 500 g/ha: 500 g ai/ha
Method in brief: as §1

[10] = test system: morningglory (Ipomoea coccinea); assay: Test B pre/postemergence; details: Ipomoea; for pest or weed control at 125 g/ha: 125 g ai/ha; for pest or weed control at 500 g/ha: 500 g ai/ha
Method in brief: as §1

[11] = test system: giant foxtail (Setaria faberii); assay: Test B pre/postemergence; details: Setaria faberi; for pest or weed control at 125 g/ha: 125 g ai/ha; for pest or weed control at 500 g/ha: 500 g ai/ha
Method in brief: as §1

[12] = test system: barnyardgrass (Echinochloa crus-galli); assay: Test B pre/postemergence; details: Echinochloa crus-galli; for pest or weed control at 125 g/ha: 125 g ai/ha; for pest or weed control at 500 g/ha: 500 g ai/ha
Method in brief: as §1

[13] = test system: lambsquarters (Chenopodium album); assay: Test B pre/postemergence; details: Chenopodium album; for pest or weed control at 125 g/ha: 125 g ai/ha; for pest or weed control at 500 g/ha: 500 g ai/ha
Method in brief: as §1

[14] = test system: crabgrass (Digitaria sanguinalis); assay: Test B pre/postemergence; details: Digitaria sanguinalis; for pest or weed control at 125 g/ha: 125 g ai/ha; for pest or weed control at 500 g/ha: 500 g ai/ha
Method in brief: as §1

Nc1nc(C2CC2)nc(CO)c1Br [Compound 21]
pest or weed control at 125 g/ha ([1]; 125 g ai/ha, scale 0 to 100 (0 no effect, 100 complete control), read-out: Blackgrass plant response rating): 10% | pest or weed control at 500 g/ha ([1]; 500 g ai/ha, scale 0 to 100, read-out: Plant response rating, Blackgrass): 20% | pest or weed control at 125 g/ha (wild oat (Avena fatua); 125 g ai/ha, scale 0 to 100 (0 no effect, 100 complete control), read-out: Oat, Wild plant response rating): 0% | pest or weed control at 500 g/ha (wild oat (Avena fatua); 500 g ai/ha, scale 0 to 100, read-out: Plant response rating, Oat, Wild): 0% | plant injury at 1000 g/ha (rice (Oryza sativa)): 40% | pest or weed control at 1000 g/ha [2]: 80% | pest or weed control at 1000 g/ha [3]: 60% | pest or weed control at 1000 g/ha [4]: 0% | pest or weed control at 125 g/ha ([5]; post-emergence, Postemergence, scale 0 to 100 (0 no effect, 100 complete control), read-out: Surinam Grass plant response rating): 0% | pest or weed control at 500 g/ha ([5]; post-emergence, Postemergence, scale 0 to 100, read-out: Plant response rating, Surinam Grass): 0% | pest or weed control at 125 g/ha ([5]; pre-emergence, Preemergence, scale 0 to 100 (0 no effect, 100 complete control), read-out: Plant response rating, Surinam Grass): 0% | pest or weed control at 500 g/ha ([5]; pre-emergence, Preemergence, scale 0 to 100 (0 no effect, 100 complete control), read-out: Surinam Grass plant response rating): 20% | pest or weed control at 125 g/ha ([6]; post-emergence, Postemergence, scale 0 to 100 (0 no effect, 100 complete control), read-out: Velvetleaf plant response rating): 10% | pest or weed control at 500 g/ha ([6]; post-emergence, Postemergence, scale 0 to 100, read-out: Plant response rating, Velvetleaf): 30% | pest or weed control at 125 g/ha ([6]; pre-emergence, Preemergence, scale 0 to 100 (0 no effect, 100 complete control), read-out: Plant response rating, Velvetleaf): 10% | pest or weed control at 500 g/ha ([6]; pre-emergence, Preemergence, scale 0 to 100 (0 no effect, 100 complete control), read-out: Velvetleaf plant response rating): 80% | pest or weed control at 125 g/ha ([7]; post-emergence, Postemergence, scale 0 to 100 (0 no effect, 100 complete control), read-out: Cocklebur plant response rating): 0% | pest or weed control at 500 g/ha ([7]; post-emergence, Postemergence, scale 0 to 100, read-out: Plant response rating, Cocklebur): 10% | pest or weed control at 125 g/ha ([7]; pre-emergence, Preemergence, scale 0 to 100 (0 no effect, 100 complete control), read-out: Plant response rating, Cocklebur): 30% | pest or weed control at 500 g/ha ([7]; pre-emergence, Preemergence, scale 0 to 100 (0 no effect, 100 complete control), read-out: Cocklebur plant response rating): 80% | pest or weed control at 125 g/ha ([8]; post-emergence, Postemergence, scale 0 to 100 (0 no effect, 100 complete control), read-out: Pigweed plant response rating): 0% | pest or weed control at 500 g/ha ([8]; post-emergence, Postemergence, scale 0 to 100, read-out: Plant response rating, Pigweed): 30% | pest or weed control at 125 g/ha ([8]; pre-emergence, Preemergence, scale 0 to 100 (0 no effect, 100 complete control), read-out: Plant response rating, Pigweed): 50% | pest or weed control at 500 g/ha ([8]; pre-emergence, Preemergence, scale 0 to 100 (0 no effect, 100 complete control), read-out: Pigweed plant response rating): 70% | plant injury at 125 g/ha (corn (Zea mays); post-emergence, Postemergence, 125 g ai/ha, scale 0 to 100 (0 no effect, 100 complete control), read-out: Corn plant response rating): 0% | Corn plant response rating (crop injury, 0 = no effect, 100 = complete kill) at 500 g/ha (corn (Zea mays); post-emergence, Postemergence, 500 g ai/ha, scale 0 to 100): 0% | Corn plant response rating (crop injury, 0 = no effect, 100 = complete kill) at 125 g/ha (corn (Zea mays); pre-emergence, Preemergence, 125 g ai/ha, scale 0 to 100 (0 no effect, 100 complete control)): 0% | plant injury at 125 g/ha ([9]; post-emergence, Postemergence, scale 0 to 100 (0 no effect, 100 complete control), read-out: Wheat plant response rating): 10% | plant injury at 500 g/ha ([9]; post-emergence, Postemergence, scale 0 to 100, read-out: Plant response rating, Wheat): 20% | plant injury at 125 g/ha ([9]; pre-emergence, Preemergence, scale 0 to 100 (0 no effect, 100 complete control), read-out: Plant response rating, Wheat): 0% | plant injury at 500 g/ha ([9]; pre-emergence, Preemergence, scale 0 to 100 (0 no effect, 100 complete control), read-out: Wheat plant response rating): 30% | pest or weed control at 125 g/ha ([10]; post-emergence, Postemergence, scale 0 to 100 (0 no effect, 100 complete control), read-out: Morningglory plant response rating): 10% | pest or weed control at 500 g/ha ([10]; post-emergence, Postemergence, scale 0 to 100, read-out: Plant response rating, Morningglory): 30% | pest or weed control at 125 g/ha ([10]; pre-emergence, Preemergence, scale 0 to 100 (0 no effect, 100 complete control), read-out: Plant response rating, Morningglory): 50% | pest or weed control at 500 g/ha ([10]; pre-emergence, Preemergence, scale 0 to 100 (0 no effect, 100 complete control), read-out: Morningglory plant response rating): 90% | pest or weed control at 125 g/ha ([11]; post-emergence, Postemergence, scale 0 to 100 (0 no effect, 100 complete control), read-out: Foxtail, Giant plant response rating): 0% | pest or weed control at 500 g/ha ([11]; post-emergence, Postemergence, scale 0 to 100, read-out: Plant response rating, Foxtail, Giant): 0% | pest or weed control at 125 g/ha ([11]; pre-emergence, Preemergence, scale 0 to 100 (0 no effect, 100 complete control), read-out: Plant response rating, Foxtail, Giant): 0% | pest or weed control at 500 g/ha ([11]; pre-emergence, Preemergence, scale 0 to 100 (0 no effect, 100 complete control), read-out: Foxtail, Giant plant response rating): 10% | pest or weed control at 125 g/ha ([12]; post-emergence, Postemergence, scale 0 to 100 (0 no effect, 100 complete control), read-out: Barnyardgrass plant response rating): 0% | pest or weed control at 500 g/ha ([12]; post-emergence, Postemergence, scale 0 to 100, read-out: Plant response rating, Barnyardgrass): 0% | pest or weed control at 125 g/ha ([12]; pre-emergence, Preemergence, scale 0 to 100 (0 no effect, 100 complete control), read-out: Plant response rating, Barnyardgrass): 0% | pest or weed control at 500 g/ha ([12]; pre-emergence, Preemergence, scale 0 to 100 (0 no effect, 100 complete control), read-out: Barnyardgrass plant response rating): 10% | pest or weed control at 125 g/ha ([13]; post-emergence, Postemergence, scale 0 to 100 (0 no effect, 100 complete control), read-out: Lambsquarters plant response rating): 10% | pest or weed control at 500 g/ha ([13]; post-emergence, Postemergence, scale 0 to 100, read-out: Plant response rating, Lambsquarters): 20% | pest or weed control at 125 g/ha ([13]; pre-emergence, Preemergence, scale 0 to 100 (0 no effect, 100 complete control), read-out: Plant response rating, Lambsquarters): 70% | pest or weed control at 500 g/ha ([13]; pre-emergence, Preemergence, scale 0 to 100 (0 no effect, 100 complete control), read-out: Lambsquarters plant response rating): 80% | pest or weed control at 125 g/ha ([14]; post-emergence, Postemergence, scale 0 to 100 (0 no effect, 100 complete control), read-out: Crabgrass plant response rating): 0% | pest or weed control at 500 g/ha ([14]; post-emergence, Postemergence, scale 0 to 100, read-out: Plant response rating, Crabgrass): 0% | pest or weed control at 125 g/ha ([14]; pre-emergence, Preemergence, scale 0 to 100 (0 no effect, 100 complete control), read-out: Plant response rating, Crabgrass): 0% | pest or weed control at 500 g/ha ([14]; pre-emergence, Preemergence, scale 0 to 100 (0 no effect, 100 complete control), read-out: Crabgrass plant response rating): 60%
